Each structure is given as a SMILES string.

For series [1] the following is noted: from patch of Example A; human cadaver epidermis, 37 degree Celsius, seven days.
A short description of series [2]: solubility of THC in aqueous and ionic solutions. Format: physicochemical. The text has this: Furthermore, THC is insoluble with many solutions, including aqueous and ionically charged solutions. An application of an ionic aqueous solution to a porous material will hinder the diffusion rate of THC through the material and decrease flux of cannabis. Therefore, an appropriate combination of porous THC absorbing material, combined with a solution that is insoluble with THC, can form a suitable rate control means. An example of such a rate controlling membrane includes mixing salt water with a porous rubber membrane that covers the cavity. The thickness of the porous rubber membrane, the concentration of the salt water, and the amount of available cannabis in the cavity are optimized experimentally to create a desired flux of THC to the patient's skin. Evaporation of necessary fluids may be prevented by a protective backing layer.

For series [3] the following is noted: prior experimentation; cited from earlier work.

As to `C=C(C)[C@@H]1CCC(C)=C[C@H]1c1c(O)cc(CCCCC)cc1O` [CBD, cannabidiol], in series [1], the individual cannabinoid flux is 5.25 micrograms per square centimeter per hour. Turning to `CCCCCc1cc(O)c2c(c1)OC(C)(C)[C@@H]1CCC(C)=C[C@@H]21` [THC, tetrahydrocannabinol], the “solubility with aqueous and ionically charged solutions” value in series [2] was “insoluble”. Further, in series [3], the “diffusion through porous materials such as rubber and plastic” value is reported as “diffuse rapidly”.

On to `CCCCCc1cc(O)c2c(c1)OC(C)(C)c1ccc(C)cc1-2` [CBN, cannabinol], for which the individual cannabinoid flux in series [1] was 4.8 micrograms per square centimeter per hour.

`CCCCCc1cc(O)c2c(c1)OC(C)(C)C1CC=C(C)CC21` (stereo not drawn) [delta 8 THC]: the individual cannabinoid flux in series [1] is reported as 0.45 micrograms per square centimeter per hour. `CCCCCc1cc(O)c2c(c1)OC(C)(C)C1CCC(C)=CC21` (stereo not drawn) [delta 9 THC]: the individual cannabinoid flux in series [1] is reported as 4.5 micrograms per square centimeter per hour.

The values above are taken from patent US6328992A, “Cannabinoid patch and method for cannabis transdermal delivery” (priority 2000, dated 2001).
